Source: PMC10762035, “Molecular basis of human trace amine-associated receptor 1 activation” (Nature Communications, 2024)
Several values for one entry are separate records, joined by “and”; a condition that tells them apart may be missing. Identical values can stand only once.

What was measured:
hTA1 [1] = target: T1, hTA1 (Homo sapiens, UniProt Q96RJ0); test: Screen of 89 aminergic compounds at 10 µM, cAMP accumulation in HEK293T cells; assay type: cell-based; details: 10 µM of compound; HEK293T; threshold log2-fold change of 2;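 also: HEK293T cells co-transfected with hTA1 and GloSensor cAMP reporter, cAMP accumulation detected by luminescence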
T1 construct: expressed in transfected cells; host or cells: HEK293T
T1 sequence (Q96RJ0 1-339): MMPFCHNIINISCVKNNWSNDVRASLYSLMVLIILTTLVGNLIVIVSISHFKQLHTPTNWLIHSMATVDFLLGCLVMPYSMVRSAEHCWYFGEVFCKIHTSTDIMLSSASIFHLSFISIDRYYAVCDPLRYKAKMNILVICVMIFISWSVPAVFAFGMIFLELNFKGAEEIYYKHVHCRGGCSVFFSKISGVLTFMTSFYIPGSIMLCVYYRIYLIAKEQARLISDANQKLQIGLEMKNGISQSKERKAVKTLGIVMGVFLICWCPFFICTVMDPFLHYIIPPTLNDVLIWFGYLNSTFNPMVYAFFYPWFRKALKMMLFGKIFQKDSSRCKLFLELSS

hTA1 [2] = target: T1, hTA1; test: GloSensor cAMP accumulation assay, concentration response, wild-type hTA1 in transfected HEK293T cells; assay type: cell-based; details: log[Compound], replicate wells;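 also: luminescence read after 30 min compound exposure at room temperature in cells preloaded with D-Luciferin, reflecting Gs-driven cAMP rise, efficacy scaled to the maximal β-PEA response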

| Structure (SMILES) | increase of signal over DMSO-treated controls (hTA1 activation) (hTA1 [1]) [fold] | Normalized Luminescence Counts for WT hTA1 (hTA1 [2]; M = -5) | Normalized Luminescence Counts for WT hTA1 (hTA1 [2]; M = -5.522) | Normalized Luminescence Counts for WT hTA1 (hTA1 [2]; M = -6) | Normalized Luminescence Counts for WT hTA1 (hTA1 [2]; M = -6.522) | Normalized Luminescence Counts for WT hTA1 (hTA1 [2]; M = -7) | Normalized Luminescence Counts for WT hTA1 (hTA1 [2]; M = -7.522) | Normalized Luminescence Counts for WT hTA1 (hTA1 [2]; M = -8) | Normalized Luminescence Counts for WT hTA1 (hTA1 [2]; M = -8.522) | Normalized Luminescence Counts for WT hTA1 (hTA1 [2]; M = -9) | Normalized Luminescence Counts for WT hTA1 (hTA1 [2]; M = -9.522) | Normalized Luminescence Counts for WT hTA1 (hTA1 [2]; M = -10) | Normalized Luminescence Counts for WT hTA1 (hTA1 [2]; M = -10.522) | Normalized Luminescence Counts for WT hTA1 (hTA1 [2]; M = -11) | Normalized Luminescence Counts for WT hTA1 (hTA1 [2]; M = -11.522) | Normalized Luminescence Counts for WT hTA1 (hTA1 [2]; M = -12) | Normalized Luminescence Counts for WT hTA1 (hTA1 [2]; M = -12.522) |
| --- | --- | --- | --- | --- | --- | --- | --- | --- | --- | --- | --- | --- | --- | --- | --- | --- | --- |
| CN1C[C@H](C(=O)N[C@]2(C)O[C@@]3(O)[C@@H]4CCCN4C(=O)[C@H](Cc4ccccc4)N3C2=O)C=C2c3cccc4[nH]cc(c34)C[C@H]21 [ergotamine] | ≥ 4 | 44.5775 and 42.7529 and 37.8036 | 33.1851 and 35.1808 and 34.0176 | 22.5339 and 18.3829 and 18.9303 | 13.3539 and 12.6012 and 11.6889 | 5.28 and 4.447 and 4.037 | 2.783 and 2.007 and 2.3948 | 1.311 and 0.7184 and 0.9351 | 1.095 and 0.9921 and 1.163 | 0.7184 and 0.3649 and 0.5816 | 0.2737 and 0.2167 and 0.1254 | 0.1482 and 0.4219 and 0.2395 | 0.1825 and 0.5018 and 0.1939 | 0.114 and 0.536 and 0.4333 | 0.6956 and 0.3649 and 0.8895 | 0.479 and 0.6728 and 0.4562 | 0.3991 and 0.593 and 0.5018 |
| C[C@H]1CNCCc2ccc(Cl)cc21 [lorcaserin] | ≥ 4 | 36.902 and 34.0112 and 1.008 and 64.4771 and 65.1158 and 60.8849 | 12.6245 and 12.4103 and 0.5526 and 38.1001 and 37.3361 and 35.7852 | 4.327 and 4.728 and 0.4991 and 15.3153 and 15.7258 and 16.125 | 2.1854 and 0.9809 and 0.8203 and 4.949 and 4.904 and 5.611 | 0.4723 and 0.2314 and 1.222 and 2.349 and 1.654 and 2.0983 | -0.3039 and -0.5448 and 0.6329 and 0.4676 and 0.5018 and 0.5816 | 0.7132 and 0.4188 and 1.757 and 0.2053 and 0.05702 and 0.536 | -0.06302 and 0.9006 and 0.8738 and 0.593 and 0.5702 (2×) | 0.2582 and -0.1433 and 0.5258 and 0.3193 and 0.2737 and 0.3877 | 0.2582 and -0.4913 and 0.7132 and 0.3877 and 0.2851 and 0.2965 | -0.06302 and -0.4378 and 0.6865 and 0.4904 and 0.2737 and 0.2851 | -0.5448 and -0.8928 and 1.141 and 0.1825 and 0.2281 and -0.06842 | 0.1511 and -0.08979 and 0.7668 and -0.1368 and -0.1254 and -0.1482 | 0.9809 and -0.009489 and 0.6329 and 0.3991 and 0.3421 and 0.2167 | 0.6865 and 0.6329 and 1.195 and 0.1825 and 0.0114 and -0.07983 | 0.4455 and 0.4723 and 1.141 and 0.03421 and 0.0114 and -0.114 |
